Laboratory results: the Deep4Chem optical property database
Where “and” joins values, the source holds several entries; their conditions need not be identical. Equal entries are not always repeated. Blank lines part the entries; values can stand above or below the compound they belong to.

Assay: photoluminescence quantum yield (fraction); solvent given as SMILES

Compound: CN(C)c1ccc(C#Cc2ccc(C=O)cc2)cc1
photoluminescence quantum yield (in C1CCCCC1): 0.363
photoluminescence quantum yield (in C1CCOC1): 0.131
photoluminescence quantum yield (in C1COCCO1): 0.254
photoluminescence quantum yield (in CC1CCCO1): 0.223
photoluminescence quantum yield (in CC#N): 0.012
photoluminescence quantum yield (in CC(C)=O): 0.047
photoluminescence quantum yield (in CC(C)CC(C)(C)C): 0.044
photoluminescence quantum yield (in CC(C)O): 0.017
photoluminescence quantum yield (in CCCCCCCCCCCCCCCC): 0.056
photoluminescence quantum yield (in CCCCCCCCCCCCCCCCCl): 0.093
photoluminescence quantum yield (in CCOC(C)=O): 0.174
photoluminescence quantum yield (in CCOCC): 0.201
photoluminescence quantum yield (in CN(C)C=O): 0.046
photoluminescence quantum yield (in CO): 0.006
photoluminescence quantum yield (in CS(C)=O): 0.037
photoluminescence quantum yield (in Cc1ccccc1): 0.337

Compound: c1ccc(Nc2nc(Nc3ccccc3)nc(Nc3ccc4c5cccc6cccc(c7cccc3c74)c65)n2)cc1
photoluminescence quantum yield (in C1COCCO1): 0.52
photoluminescence quantum yield (in CC#N): 0.42
photoluminescence quantum yield (in CCCCOCCCC): 0.5
photoluminescence quantum yield (in CCOC(C)=O): 0.44

Compound: c1ccc(-c2c3ccccc3c(-c3ccccc3)c3ccccc23)cc1
photoluminescence quantum yield (in C1CCCCC1): 0.97

Compound: CN(C)c1ccc(/C=C/C=C/c2ccc([N+](=O)[O-])c(O)c2)cc1
photoluminescence quantum yield (in C1CCCCC1): 0.13
photoluminescence quantum yield (in C1COCCO1): 0.03
photoluminescence quantum yield (in CCCCCCC): 0.1
photoluminescence quantum yield (in Cc1ccccc1): 0.11

Compound: COC(=O)c1[nH]c(-c2ccc([N+](=O)[O-])cc2)c2nnc3ccc(OC)cc3c12
photoluminescence quantum yield (in ClCCl): 0.262

Compound: Cc1nc(-c2ccccc2O)n2c1CCCC2
photoluminescence quantum yield (in ClCCl): 0.63

Compound: c1cc2c3c(cccc3c1)C(N1CCOCCNCCOCCOCC1)=N2
photoluminescence quantum yield (in CC#N): 0.0046

Compound: N#Cc1cccc(-c2pc3ccccc3s2)c1 (configuration not stated)
photoluminescence quantum yield (in CC#N): 0.015

Compound: CC1=C(C)C(c2c(C)c(C)c3n2[B-](F)(F)[N+]2=C(C)C(C)=C(C)C2=C3)=[N+]2C1=Cc1c(C)c(C)c(C)n1[B-]2(F)F
photoluminescence quantum yield (in ClCCl): 0.7

Compound: CCC1=C(C)C2=C(C)c3cc(I)cn3[B-](F)(F)[N+]2=C1C
photoluminescence quantum yield (in C1CCCCC1): 0.13
photoluminescence quantum yield (in CC(C)=O): 0.087
photoluminescence quantum yield (in CCO): 0.095
photoluminescence quantum yield (in CCOC(C)=O): 0.097
photoluminescence quantum yield (in CO): 0.086
photoluminescence quantum yield (in OCC(F)(F)F): 0.075

Compound: COc1ccc(OC)c(C(C)=O)c1
photoluminescence quantum yield (in CO): 0.1

Compound: F[B-]1(F)n2c(-c3cccs3)cc(-c3cccs3)c2N=C2C(c3cccs3)=CC(c3cccs3)=[N+]21
photoluminescence quantum yield (in C1CCOC1): 0.12
photoluminescence quantum yield (in CC#N): 0.11
photoluminescence quantum yield (in CS(C)=O): 0.13
photoluminescence quantum yield (in Cc1ccccc1): 0.1
photoluminescence quantum yield (in ClCCl): 0.12 and 0.11

Compound: C/C(=N\Nc1ccc(C#N)cc1)c1cccc(/C(C)=N/Nc2ccc(C#N)cc2)c1
photoluminescence quantum yield (in CO): 0.14

Compound: C[Si](C)(C)c1ccc(-c2ccc(-c3ccc(-c4ccc(-c5ccc([Si](C)(C)C)cc5)cc4)c4nsnc34)cc2)cc1
photoluminescence quantum yield (in C1CCOC1): 0.84

Compound: c1ccc([B-]2(c3ccccc3)Oc3ccc4ccccc4c3-c3c4ccccc4cc[n+]32)cc1
photoluminescence quantum yield (in Cc1ccccc1): 0.32

Compound: C[Si](C)(C)C#Cc1c2c(=O)c3ccccc3c2c(C#C[Si](C)(C)C)c2c(=O)c3ccccc3c12
photoluminescence quantum yield (in ClC(Cl)Cl): 0.08

Compound: O=C(Cc1ccccc1)OCc1ccc2c3cccc4cccc(c5cccc1c52)c43
photoluminescence quantum yield (in CCO): 0.92

Compound: Cc1ccc(C2=C3C=C4C(=[N+]3[B-](F)(F)n3c2cc2c3-c3ccccc3C23c2ccccc2-c2ccccc23)c2ccccc2C42c3ccccc3-c3ccccc32)cc1
photoluminescence quantum yield (in C1CCOC1): 0.67

Compound: c1ccc(-c2nc3sc4ccccc4c3s2)nc1
photoluminescence quantum yield (in CS(C)=O): 0.82

Compound: Cc1nc(-c2cc(C(F)(F)F)ccc2O)n2c1CCCC2
photoluminescence quantum yield (in ClCCl): 0.61

Compound: C1=Cc2ccccc2C(=Cc2ccc(-c3cc(-c4ccc(C=C5c6ccccc6C=Cc6ccccc65)cc4)cc(-c4ccc(C=C5c6ccccc6C=Cc6ccccc65)cc4)c3)cc2)c2ccccc21
photoluminescence quantum yield (in C1CCOC1): 0.0023

Compound: c1ccc(-c2nc(-c3ccccc3)nc(-c3ccc(-c4ccc5c(c4)C4(c6ccccc6-c6ccccc64)c4ccccc4N5c4ccccc4)cc3)n2)cc1
photoluminescence quantum yield (in c1cc(-c2cccc(-n3c4ccccc4c4ccccc43)c2)cc(-n2c3ccccc3c3ccccc32)c1): 0.82

Compound: CC1(C)C(/C=C/C2=C(Oc3ccc(CCN=C=S)cc3Cl)C(=C/C=C3/N(CCCS(=O)(=O)[O-])c4ccccc4C3(C)C)/CCC2)=[N+](CCCS(=O)(=O)[O-])c2ccccc21
photoluminescence quantum yield (in CO): 0.14

Compound: CCC1=C(CC)C(C)=[N+]2C1=Cc1c(C)c3cc4c(cc3n1[B-]2(F)F)=[N+]1C(=Cc2c(CC)c(CC)c(C)n2[B-]1(F)F)C=4C
photoluminescence quantum yield (in ClC(Cl)Cl): 0.72

Compound: NCCCCCCCCCCCCN1C(=O)c2ccc3c4ccc5c6c(ccc(c7ccc(c2c37)C1=O)c64)C(=O)N(c1ccc(O)cc1)C5=O
photoluminescence quantum yield (in CN(C)C=O): 0.91

Compound: Cc1ccc(/C2=C3N=C(C(c4ccccc4)=C/3c3ccccc3)/C(c3ccc(C)cc3)=c3\[nH]/c(c(-c4ccccc4)c3-c3ccccc3)=C(/c3ccc(C)cc3)C3=N/C(=C(/c4ccc(C)cc4)c4[nH]c2c(-c2ccccc2)c4-c2ccccc2)C(c2ccccc2)=C3c2ccccc2)cc1
photoluminescence quantum yield (in ClCCl): 0.008

Compound: c1cc2cc(c1)c1cccc(c1)c1cccc(c1)c1cccc(c1)c1cccc(c1)c1cccc2c1
photoluminescence quantum yield (in ClC(Cl)Cl): 0.06

Compound: C[Si](C)(C)c1ccc(C#N)c2ccccc12
photoluminescence quantum yield (in C1CCCCC1): 0.66

Compound: O=C1/C(=C2\Sc3ccc(S(=O)(=O)O)cc3C2=O)Sc2ccc(S(=O)(=O)O)cc21
photoluminescence quantum yield (in CN(C)C=O): 0.25
photoluminescence quantum yield (in CO): 0.008
photoluminescence quantum yield (in CS(C)=O): 0.008
photoluminescence quantum yield (in O): 0.005

Compound: CCOC(=O)c1sc(-c2ccc(-c3cc(C4CC4)c(C(=O)OCC)s3)s2)cc1C1CC1
photoluminescence quantum yield (in ClCCl): 0.21

Compound: c1ccc(-c2nnc(-c3cc(-n4c5ccccc5c5ccccc54)c(-n4c5ccccc5c5ccccc54)cc3-c3nnc(-c4ccccc4)o3)o2)cc1
photoluminescence quantum yield (in Cc1ccccc1): 0.383

Compound: CCC1(CC)c2cc(N(C)C)ccc2-c2ccc(C(F)(F)F)cc21
photoluminescence quantum yield (in C1CCCCC1): 0.67
photoluminescence quantum yield (in CC#N): 0.04
photoluminescence quantum yield (in CCO): 0.58
photoluminescence quantum yield (in CCOCC): 0.63
photoluminescence quantum yield (in CS(C)=O): 0.53
photoluminescence quantum yield (in ClCCl): 0.44
photoluminescence quantum yield (in c1ccccc1): 0.59

Compound: CC1=[N+]2C(=C(c3ccccc3)c3c4c5ccccc5c5ccccc5c4c(C)n3[B-]2(F)F)c2c1c1ccccc1c1ccccc21
photoluminescence quantum yield (in CCCCCC): 0.94

Compound: CC[n+]1nc2cc3c4c(c2c2ccccc21)CCCN4CCC3
photoluminescence quantum yield (in O): 0.25

Compound: CC1(C)OB(c2ccc3ccc4cccc5ccc2c3c45)OC1(C)C
photoluminescence quantum yield (in Cc1ccccc1): 0.81

Compound: CCC1(CC)c2cc(C#Cc3cccs3)ccc2-c2c1c1c(c3c2C(CC)(CC)c2cc(C#Cc4cccs4)ccc2-3)C(CC)(CC)c2cc(C#Cc3cccs3)ccc2-1
photoluminescence quantum yield (in C1CCOC1): 0.58

Compound: CCN(CC)c1ccc2c(C#N)c(/C=C(\C#N)c3nc4ccccc4o3)c(=O)oc2c1
photoluminescence quantum yield (in C1COCCO1): 0.0328
photoluminescence quantum yield (in CC#N): 0.0658
photoluminescence quantum yield (in CCO): 0.0144
photoluminescence quantum yield (in CCOC(C)=O): 0.0434
photoluminescence quantum yield (in CO): 0.0121
photoluminescence quantum yield (in Cc1ccccc1): 0.101
photoluminescence quantum yield (in ClCCl): 0.105

Compound: CC1(C)c2ccccc2N(c2ccc(C(=O)c3cc(C(=O)c4ccc(N5c6ccccc6C(C)(C)c6ccccc65)cc4)cc(C(=O)c4ccc(N5c6ccccc6C(C)(C)c6ccccc65)cc4)c3)cc2)c2ccccc21
photoluminescence quantum yield (in Cc1ccccc1): 0.189
photoluminescence quantum yield (in c1ccc2c(c1)c1ccccc1n2-c1ccc(-c2ccc(-n3c4ccccc4c4ccccc43)cc2)cc1): 0.856

Compound: CC(C)(C)c1ccc(-c2nc3ccccc3nc2-c2cc(-c3nc4ccccc4nc3-c3ccc(C(C)(C)C)cc3)cc(-n3c4ccccc4c4ccccc43)c2)cc1
photoluminescence quantum yield (in Cc1ccccc1): 0.35

Results, then the compound that gave them:

photoluminescence quantum yield (in CC#N): 0.96
Compound: F[B-]1(F)OC(c2ccc3c(c2)Cc2ccccc2-3)=CC(c2ccccc2)=[O+]1

photoluminescence quantum yield (in CC#N): 0.05
photoluminescence quantum yield (in ClCCl): 0.98
Compound: COC(=O)c1cc(=O)n(Cc2ccccc2)c2cc(-c3ccc(N(C)C)cc3)sc12

photoluminescence quantum yield (in ClC(Cl)Cl): 0.65
Compound: CC1=CC(C)=[N+]2C1=C(c1ccc(I)cc1)c1c(C)cc(C)n1[B-]2(OCc1ccccc1)OCc1ccccc1

photoluminescence quantum yield (in C1CCCCC1): 0.61
photoluminescence quantum yield (in C1CCOC1): 0.38
photoluminescence quantum yield (in CC#N): 0.11
Compound: Cn1nc(-c2ccccc2)c2nc3cc(F)ccc3nc21

photoluminescence quantum yield (in ClCCl): 0.38
Compound: [BH3-][P+]1(c2ccccc2)c2ccccc2-c2sc3ccccc3c21 (configuration not stated)

photoluminescence quantum yield (in ClCCl): 0.72
Compound: CN(C)c1cc(-c2ccccc2)cc2cc(C#Cc3ccncc3)ccc12

photoluminescence quantum yield (in ClC(Cl)Cl): 0.74
Compound: CCCN1c2ccccc2Sc2cc(/C=C\c3cc(=O)oc4cc(O)ccc34)ccc21

photoluminescence quantum yield (in C1CCOC1): 0.005
photoluminescence quantum yield (in CC#N): 0.0019
photoluminescence quantum yield (in CS(C)=O): 0.0015
photoluminescence quantum yield (in ClC(Cl)Cl): 0.014
Compound: COc1cccc2cc(-c3ccc([N+](=O)[O-])cc3)c(=O)oc12

photoluminescence quantum yield (in CS(C)=O): 0.075
Compound: CCOC(=O)C1=C(N)n2c(=O)c3ccccc3c(=O)n2C1c1cccs1 (configuration not stated)

photoluminescence quantum yield (in CC#N): 0.22
photoluminescence quantum yield (in ClC(Cl)Cl): 0.34
Compound: F[B-]1(F)n2c(-c3ccccc3)cc(-c3ccccc3)c2N=C2C(c3ccccc3)=CC(c3ccccc3)=[N+]21

photoluminescence quantum yield (in ClC(Cl)Cl): 0.72
Compound: Cc1cc(C)c(C2=C3C=CC4=[N+]3[B-]3(Oc5ccccc54)Oc4ccccc4-c4ccc2n43)c(C)c1 (configuration not stated)

photoluminescence quantum yield (in CCO): 0.01
photoluminescence quantum yield (in ClC(Cl)Cl): 0.09
Compound: CC[N+](CC)=c1ccc2c(-c3ccccc3C(=O)O)c3c(=O)oc4c5c6c(cc4c3oc-2c1)CCCN6CCC5

photoluminescence quantum yield (in CCO): 0.0075
photoluminescence quantum yield (in ClCCl): 0.017
photoluminescence quantum yield (in O): 0.01
Compound: Oc1c(-c2cccs2)cccc1-c1nc2ccccc2s1

photoluminescence quantum yield (in ClC(Cl)Cl): 0.049
Compound: F[B-]1(F)OC(c2ccc(Br)cc2)=Cc2c3ccccc3cc[n+]21

photoluminescence quantum yield (in ClCCl): 0.62
Compound: CCCCn1c2ccccc2c2ccc(C#Cc3ccc4ccc5cccc6ccc3c4c56)cc21

photoluminescence quantum yield (in ClCCl): 0.27
Compound: CC(C)(C)NC(=O)c1ccc(-c2cc3ccccc3s2)c2ccc3c4ccccc4c4ccccc4c3c12

photoluminescence quantum yield (in CO): 0.58
photoluminescence quantum yield (in CS(C)=O): 0.63
Compound: CCC1=C(C)C2=Cc3c4ccccc4c4n3[B-](c3cc[n+](C)cc3)(Oc3ccccc3-4)[N+]2=C1C (configuration not stated)

photoluminescence quantum yield (in C1CCOC1): 0.166
Compound: N#Cc1ccc(/C=C/c2ccc(C=C(c3ccccc3)c3ccccc3)cc2)cc1

photoluminescence quantum yield (in CCO): 0.008
photoluminescence quantum yield (in O): 0.14
Compound: COc1cccc(OC)c1-c1c2ccc(=[N+]3CCNCC3)cc-2oc2cc(N3CCNCC3)ccc12

photoluminescence quantum yield (in c1ccccc1): 0.198
Compound: Cc1nc2c(ccc3ccccc32)oc1=O
